Patent US6512006B1, “HIV protease inhibitors” (Warner-Lambert Company, priority 1999, dated 2003)
pEC50, pIC50, pKi: −log10 of the molar value. Read-outs that look alike come from different tables or passages of the source.

Experiments:
HIV protease enzyme = HIV protease enzyme (Human immunodeficiency virus type 1 group M subtype B, UniProt P04585); assay: IC50s measured in vitro against HIV protease enzyme at pH 4.7 and 6.2
[1] = biological target: T1, Recombinant HIV-1 protease (Human immunodeficiency virus type 1 group M subtype B, UniProt P04585); assay: HIV Protease Assay (Ki); format: biochemical; conditions: pH 6.2, 37° C., 40 μM substrate III
T1 construct: Recombinant HIV-1 protease (>96% purity); purchased Bachem Bioscience, Inc. (King of Prussia, Pa.)
Method: Recombinant HIV-1 protease (>96% purity) and HIV protease substrate III (the undecapeptide H-His-Lys-Ala-Arg-Val-Leu-Nph-Glu-Ala-Nle-Ser-NH2, 97% purity) were purchased from Bachem Bioscience, Inc. (King of Prussia, Pa.).
The methods employed follow the procedures of Tummino, et al., Archives of Biochemistry and Biophysics, 1995;316:523). […] (total volume, […]). […] The final inhibitor concentrations used were 0 (0.1, 0.2, in some experiments), 0.5, 1, 2, 5, 10, 20, 50, and 100 μM. The solution was mixed, incubated for 5 minutes and the reaction quenched by addition of trifluoracetic acid, 2% final. The (leu-p-nitro-phe) bond of the substrate is cleaved by the enzyme and substrate and products separated by reverse-phase HPLC (high pressure liquid chromatography). Absorbance was measured at 220 nm, peak areas determined, and percentage conversion to product used to calculate percentage control (=[% conversion (+inhibitor)/% conversion (−inhibitor)]×100).
Ki means inhibitory constant; it approximately the equilibrium binding constant for the binding of the inhibitor to the free enzyme.

[2] = tested on: HIV infected lymphocyte derived CEM cells; assay: Cellular Infection Assay, XTT cytopathic procedure in CEM cells (antiviral efficacy); format: cell-based
Method: Compounds were tested in lymphocyte derived CEM cells using the XTT cytopathic procedures and were performed at Southern Research Institute (Buckheit, et al., Antiviral Res., 1993;21:247; see also Weislow, et al., J. Nat. Cancer Inst., 1989;81:577). Compound concentrations were 0.32, 1, 3.2, 10, 32, and 100 μM. The EC50 represents the concentration of agent, which reduces HIV cytopathic effects 50% relative to untreated control. Cellular toxicity of the agents are estimated from the TC50 which represents the concentration of the agent which inhibits 50% of the viability of uninfected cells.
EC50 indicates the concentration of the drug which provide 50% protection against HIV.

uninfected CEM cells = assay: Cellular toxicity in uninfected CEM cells (XTT); format: cell-based; conditions: cytotoxicity in 50% of uninfected CEM cells; read-out: TC50 (the source's name)
Method: (§1) Compound concentrations were 0.32, 1, 3.2, 10, 32, and 100 μM.

[3] = Cellular toxicity in uninfected CEM cells (XTT); format: cell-based; conditions: human, uninfected CEM cells (lymphocyte derived), cytotoxicity in 50% of uninfected CEM cells; read-out: TC50 (the source's name)
Method: as §1

[4] = Human immunodeficiency virus 1, CCRF-CEM, read-out: Antiviral Efficacy EC50, CEM cells, 50% protection against HIV cytopathic effects

| Compound | pIC50 (HIV protease enzyme; pH (4.7)) | pIC50 (HIV protease enzyme; pH (6.2)) | pKi ([1]; Inhibition of HIV Protease Ki) | melting point [°C] | further results |
| --- | --- | --- | --- | --- | --- |
| Cc1ccc(C(C)(C)C)c(Sc2c(O)cc(-c3ccccc3)oc2=O)c1 | 7.55 | 6.55 | – | – | – |
| Cc1ccc(C(C)(C)C)c(SC2=C(O)CC(CCc3ccccc3)(c3ccccc3)OC2=O)c1 (stereo not drawn) | 8.00 | 7.46 | – | – | – |
| CCCN(C1=C(O)CC(CCc2ccc(O)cc2)(C(C)C)OC1=O)c1cccc(NS(=O)(=O)c2ccc(C(F)(F)F)cn2)c1 (stereo not drawn) [Example 2, 5-Trifluoromethyl-pyridine-2-sulfonic acid [3-({4-hydroxy-6-[2-(4-hydroxy-phenyl)-ethyl]-6-isopropyl-2-oxo-5,6-dihydro-2H-pyran-3-yl}-propyl-amino)-phenyl]-amide] | – | – | 10.08 | 107 to 110 | pEC50 ([2]; read-out: Antiviral Efficacy EC50, CEM cells, 50% protection against HIV cytopathic effects): 6.00; CC50 (uninfected CEM cells): 71000 nM |
| CCCCN(C1=C(O)CC(CCc2ccc(O)cc2)(C(C)C)OC1=O)c1ccccc1 (stereo not drawn) [Example 13, 3-(Butyl-phenyl-amino)-4-hydroxy-6-[2-(4-hydroxy-phenyl)-ethyl]-6-isopropyl-5,6-dihydro-pyran-2-one] | – | – | 9.70 | 196 to 198 | pEC50 [2, 4]: 5.82; CC50 [3]: 156000 nM |
| CC(C)C1(CCc2ccc(O)cc2)CC(O)=C(N(CCC#N)c2ccccc2)C(=O)O1 (stereo not drawn) [Example 21, 3-({4-Hydroxy-6-[2-(4-hydroxy-phenyl)-ethyl]-6-isopropyl-2-oxo-5,6-dihydro-2H-pyran-3-yl}-phenyl-amino)-propionitrile] | – | – | 8.80 | 119 to 121 | pEC50 [2, 4]: 5.57; CC50 [3]: 320000 nM |
| CCCN(C1=C(O)CC(CCc2ccccc2)(C(C)C)OC1=O)c1ccccc1 (stereo not drawn) [drawing 7] | 8.40 | 8.40 | – | – | – |
| Pyridine-2-sulfonic acid [3-({4-hydroxy-6-[2-(4-hydroxy-phenyl)-ethyl]-6-isopropyl-2-oxo-5,6-dihydro-2H-pyran-3-yl}-propyl-amino)-phenyl]-amide [Example 14] | – | – | – | – | pKi ([1]; read-out: Inhibition of HIV Protease Ki): 9.27; pEC50 ([2]; CEM cells, 50% protection against HIV cytopathic effects, read-out: Antiviral Efficacy EC50): 5.80; CC50 (uninfected CEM cells): 210000 nM |
